# From patent US20130029381A1, “MICROORGANISMS FOR THE PRODUCTION OF 1,4-BUTANEDIOL, 4-HYDROXYBUTANAL, 4-HYDROXYBUTYRYL-COA, PUTRESCINE AND RELATED COMPOUNDS, AND METHODS RELATED THERETO” (GENOMATICA, INC., priority 2009, published 2013)
# Test system: CCCC=O
# Assay: ADH enzyme assay of Adh1 (084), Km for aldehyde substrates
# Assay type: biochemical, Geobacillus thermoglucosidasius
# Settings: other: reductive ADH assay, enzyme expressed in E. coli; pH 7.5
# Text: (§1) The Adh1 enzyme (084) expressed very well from its native gene in E. coli (see FIG. 32A).
row,Compound,Km [mM]
1,Adh1 enzyme (084) (Geobacillus sp. M10EXG),1.2

# Test system: O=CCCCO
# Assay: as above
# Assay type: biochemical, Geobacillus thermoglucosidasius
# Settings: other: reductive ADH assay, enzyme expressed in E. coli; pH 7.5
# Text: as §1
row,Compound,Km [mM]
1,Adh1 enzyme (084) (Geobacillus sp. M10EXG),4.0

# Target: homoserine kinase (Escherichia coli, UniProt P00547)
# Sequence (P00547 whole entry): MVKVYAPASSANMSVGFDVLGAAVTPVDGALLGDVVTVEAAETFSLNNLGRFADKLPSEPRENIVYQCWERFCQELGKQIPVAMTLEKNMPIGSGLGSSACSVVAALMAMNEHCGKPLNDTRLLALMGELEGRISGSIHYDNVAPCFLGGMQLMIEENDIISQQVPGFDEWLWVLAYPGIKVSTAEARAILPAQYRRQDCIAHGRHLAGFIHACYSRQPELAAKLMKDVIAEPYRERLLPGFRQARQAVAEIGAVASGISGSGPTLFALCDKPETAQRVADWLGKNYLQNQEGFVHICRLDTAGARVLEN
# Assay: not given
# Settings: cited from earlier work
row,Compound,Km [mM]
1,COC(=O)[C@@H](N)CCO [L-homoserine methyl ester],4.9 ± 2
2,CC(C)OC(=O)[C@@H](N)CCO [L-homoserine isopropyl ester],1.2 ± 0.5
3,N[C@@H](CCO)C(=O)O [L-homoserine],0.14 ± 0.04
4,CCCOC(=O)[C@@H](N)CCO [L-homoserine n-propyl ester],3.5 ± 0.4
5,CCOC(=O)[C@@H](N)CCO [L-homoserine ethyl ester],1.9 ± 0.5
6,"N[C@H](CO)CCO [L-2-amino-1,4-butanediol]",11.6 ± 6.5
7,CC(C)COC(=O)[C@@H](N)CCO [L-homoserine isobutyl ester],6.9 ± 1.1
8,N[C@H](CCO)C(=O)O [D-homoserine],31.8 ± 7.2

# Target: T1, L(+)-lactate dehydrogenase from A. eutrophus (Cupriavidus necator, UniProt Q07251)
# T1 sequence (Q07251 1-349): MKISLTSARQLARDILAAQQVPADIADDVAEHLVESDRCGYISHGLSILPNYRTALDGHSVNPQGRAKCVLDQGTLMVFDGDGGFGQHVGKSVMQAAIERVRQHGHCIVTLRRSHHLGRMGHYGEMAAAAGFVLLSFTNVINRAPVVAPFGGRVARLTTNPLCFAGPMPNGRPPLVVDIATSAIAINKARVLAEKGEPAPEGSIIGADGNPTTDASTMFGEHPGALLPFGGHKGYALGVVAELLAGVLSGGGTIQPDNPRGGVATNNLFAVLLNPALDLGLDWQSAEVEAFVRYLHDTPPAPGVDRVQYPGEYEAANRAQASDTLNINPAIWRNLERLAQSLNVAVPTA
# Assay: not given
# Settings: compared with that on pyruvate; cited from earlier work
row,Compound,Activity (%) of L(+)-lactate dehydrogenase from A. eutrophus [%]
1,CCC(=O)C(=O)O [2-Oxobutyrate],107.0
2,O=C(O)C(=O)CF [3-Fluoropyruvate],33.6
3,CC(C)C(=O)C(=O)O [3-Methyl-2-oxobutyrate],28.5
4,CCCC(=O)C(=O)O [2-Oxovalerate],125.0
5,O=C(O)CCC(=O)C(=O)O [2-Oxoglutarate],79.6

# Target: T2, L(+)-lactate dehydrogenase from rabbit muscle (Oryctolagus cuniculus, UniProt P13491)
# T2 construct: rabbit muscle; host or cells: rabbit muscle
# Assay: not given
# Settings: compared with that on pyruvate; cited from earlier work
row,Compound,Activity (%) of L(+)-lactate dehydrogenase from rabbit muscle [%]
1,O=CC(=O)O [Glyoxylate],23.9
